Legend:
[1] = target: T1, rat μ (C6-MOR) opioid receptor (Rattus norvegicus, UniProt P33535); assay: Radioligand binding assay, [3H]diprenorphine displacement, MOR; details: displacement of 0.2 nM [3H]diprenorphine, C6-MOR membranes; mean ± standard error
T1 construct: expressed in transfected cells
Experimental: (§1) In Vitro Pharmacology-Cell Lines and Membrane Preparations. All tissue culture reagents were purchased from Gibco Life Sciences (Grand Island, N.Y., U.S.). C6-rat glioma cells stably transfected with a rat μ (C6-MOR) or rat δ (C6-DOR) opioid receptor20 and Chinese hamster ovary (CHO) cells stably expressing a human K (CHO-KOR) opioid receptor21 were used for all in vitro assays. Cells were grown to confluence at 37° C. in 5% CO2 in Dulbecco's modified Eagle medium containing 10% fetal bovine serum and 5% penicillin/streptomycin. Membranes were prepared by washing confluent cells three times with ice cold phosphate buffered saline (0.9% NaCl, 0.61 mM Na2HPO4, 0.38 mM KH2PO4, pH 7.4). Cells were detached from the plates by incubation in warm harvesting buffer (20 mM HEPES, 150 mM NaCl, 0.68 mM EDTA, pH 7.4) and pelleted by centrifugation at 200 g for 3 min. The cell pellet was suspended in ice-cold 50 mM Tris-HCl buffer, pH 7.4, and homogenized with a Tissue Tearor (Biospec Products, Inc., Bartlesville, Okla., U.S.) for 20 s at setting 4. The homogenate was centrifuged at 20 000 g for 20 min at 4° C., and the pellet was rehomogenized in 50 mM Tris-HCl with a Tissue Tearor for 10 s at setting 2, followed by recentrifugation. The final pellet was resuspended in 50 mM Tris-HCl and frozen in aliquots at […]. Protein concentration was determined via Bradford assay using bovine serum albumin as the standard.
(§2) Radioligand Binding Assays. Radioactive compounds were purchased from Perkin-Elmer (Waltham, Mass., U.S.). Opioid ligand binding assays were performed using competitive displacement of 0.2 nM [3H]diprenorphine (250 μCi, 1.85 TBq/mmol) by the test compound from membrane preparations containing opioid receptors. The assay mixture, containing membrane suspension (20 μg protein/tube) in 50 mM Tris-HCl buffer (pH 7.4), [3H]diprenorphine, and various concentrations of test peptide, was incubated at room temperature for 1 h to allow binding to reach equilibrium. The samples were rapidly filtered through Whatman GF/C filters using a Brandel harvester (Brandel, Gaithersburg, Md., U.S.) and washed three times with 50 mM Tris-HCl buffer. The radioactivity retained on dried filters was determined by liquid scintillation counting after saturation with EcoLume liquid scintillation cocktail in a Wallac 1450 MicroBeta (Perkin-Elmer, Waltham, Mass., U.S.). Nonspecific binding was determined using 10 μM naloxone. Inhibitory constant (Ki) values were calculated using nonlinear regression analysis to fit a logistic equation to the competition data using GraphPad Prism, version 5.01, for Windows (GraphPad Software Inc., La Jolla, Calif.). The results presented are the mean±standard error from at least three separate assays performed in duplicate.

[2] = target: T2, rat δ (C6-DOR) opioid receptor (Rattus norvegicus, UniProt P33533); assay: Radioligand binding assay, [3H]diprenorphine displacement, DOR; details: displacement of 0.2 nM [3H]diprenorphine, C6-DOR membranes; mean ± standard error
T2 construct: expressed in transfected cells
Experimental: as §1, §2

[3] = target: T3, human κ (CHO-KOR) opioid receptor (Homo sapiens, UniProt P41145); assay: Radioligand binding assay, [3H]diprenorphine displacement, KOR; details: displacement of 0.2 nM [3H]diprenorphine, CHO-KOR membranes; mean ± standard error
T3 construct: expressed in transfected cells
Experimental: as §1, §2

[4] = target: T1, rat μ (C6-MOR) opioid receptor; assay: Stimulation of [35S]GTPγS binding, MOR; format: biochemical; details: for Emax / % stimulation MOR: [35S]GTPγS maximal stimulation compared with 10 μM standard DAMGO
Experimental: as §1
(§3) Stimulation of [^35S]GTPyS Binding. Agonist stimulation of [35S]guanosine 5′-O-[γ-thio]triphosphate ([^35S]GTPγS, 1250 Ci, 46.2 TBq/mmol) binding was measured as described previously Briefly, membranes (10-20 μg of protein/tube) were incubated 1 h at room temperature in GTPyS buffer (50 mM Tris-HCl, 100 mM NaCl, 5 mM MgCl2, pH 7.4) containing 0.1 nM [^35S]GTPγS, 30 μM guanosine diphosphate (GDP), and varying concentrations of test peptides. Peptide stimulation of [^35S]GTPyS was compared with 10 μM standard compounds [D-Ala^2,N-MePhe^4,Gly-ol]encephalin (DAMGO) at MOR, D-Pen^2,5-enkephalin (DPDPE) at DOR, or […] at KOR. The reaction was terminated by rapidly filtering through GF/C filters and washing 10 times with GTPyS buffer, and retained radioactivity was measured as described above. The results presented are the mean±standard error from at least three separate assays performed in duplicate; maximal stimulation was determined using nonlinear regression analysis with GraphPad Prism (GraphPad Software Inc., La Jolla, Calif.).

[5] = target: T2, rat δ (C6-DOR) opioid receptor; assay: Stimulation of [35S]GTPγS binding, DOR; format: biochemical; details: for Emax / % stimulation DOR: [35S]GTPγS maximal stimulation compared with 10 μM standard DPDPE; for EC50 (nm) DOR / EC50: [35S]GTPγS binding, C6-DOR membranes, mean ± standard error
Experimental: as §1, §3

[6] = target: T3, human κ (CHO-KOR) opioid receptor; assay: Stimulation of [35S]GTPγS binding, KOR; format: biochemical
Experimental: as §1, §3

[7] = [35S]GTPγS binding, C6-MOR membranes, mean ± standard error

T3 sequence (P41145 whole entry): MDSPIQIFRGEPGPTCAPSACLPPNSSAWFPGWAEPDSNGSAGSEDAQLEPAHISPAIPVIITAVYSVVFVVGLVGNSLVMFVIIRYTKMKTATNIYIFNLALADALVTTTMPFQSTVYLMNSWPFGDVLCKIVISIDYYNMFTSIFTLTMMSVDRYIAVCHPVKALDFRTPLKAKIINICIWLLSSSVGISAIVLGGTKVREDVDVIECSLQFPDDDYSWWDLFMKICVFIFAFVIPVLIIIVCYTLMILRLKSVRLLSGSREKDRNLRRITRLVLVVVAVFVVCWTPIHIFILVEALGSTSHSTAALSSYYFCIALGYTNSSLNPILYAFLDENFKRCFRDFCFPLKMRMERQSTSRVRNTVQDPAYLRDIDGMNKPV
T1 sequence (P33535 whole entry): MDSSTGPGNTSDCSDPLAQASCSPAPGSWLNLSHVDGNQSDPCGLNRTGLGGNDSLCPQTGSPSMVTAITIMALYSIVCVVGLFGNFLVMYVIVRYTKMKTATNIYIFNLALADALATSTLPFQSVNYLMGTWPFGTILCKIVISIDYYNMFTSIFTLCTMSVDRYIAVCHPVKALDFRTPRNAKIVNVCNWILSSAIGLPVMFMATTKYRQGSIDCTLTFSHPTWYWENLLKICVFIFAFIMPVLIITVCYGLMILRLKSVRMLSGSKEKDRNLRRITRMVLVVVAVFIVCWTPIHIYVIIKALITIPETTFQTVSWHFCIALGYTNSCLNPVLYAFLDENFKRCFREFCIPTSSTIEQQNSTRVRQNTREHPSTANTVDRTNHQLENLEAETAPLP
T2 sequence (P33533 whole entry): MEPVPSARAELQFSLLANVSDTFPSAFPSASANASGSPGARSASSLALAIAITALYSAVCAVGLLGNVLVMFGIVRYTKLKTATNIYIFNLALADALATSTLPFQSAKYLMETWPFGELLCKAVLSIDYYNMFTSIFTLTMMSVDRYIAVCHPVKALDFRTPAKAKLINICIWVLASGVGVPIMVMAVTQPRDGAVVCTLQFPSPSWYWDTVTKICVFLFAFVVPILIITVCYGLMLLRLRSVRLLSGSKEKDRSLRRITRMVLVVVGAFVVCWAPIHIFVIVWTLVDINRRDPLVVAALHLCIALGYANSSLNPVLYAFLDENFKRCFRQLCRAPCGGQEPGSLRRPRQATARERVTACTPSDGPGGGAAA

| SMILES | Ki [1] | Ki [2] | Ki [3] | EC50 [4, 7] | Emax [4] | Emax [5] | EC50 (nm) DOR [5] | % stimulation DOR [5] | % stimulation MOR [4] | EC50 [5] | EC50 ([6]; [35S]GTPγS binding, CHO-KOR membranes, mean ± standard error) | Emax ([6]; [35S]GTPγS maximal stimulation compared with 10 μM standard U-69,593) | EC50 (nm) MOR [4, 7] |
| --- | --- | --- | --- | --- | --- | --- | --- | --- | --- | --- | --- | --- | --- |
| Cc1cc(O)cc(C)c1C[C@H](N)C(=O)N[C@@H]1CCCc2ccc(Oc3ccccc3)cc21 [Compound 1118] | 0.33 ± 0.09 nM | 13 ± 1.01 nM | 38.5 ± 5.39 nM | 43 ± 14 nM | 41.9 ± 8.97% | 1.65 ± 1.65% |  |  |  |  |  |  |  |
| COc1ccc2c(c1)CC(Cc1ccc3c(c1)[C@H](NC(=O)[C@@H](N)Cc1c(C)cc(O)cc1C)CCN3)C2 (stereo partly shown) [Compound 1037] | 0.26 ± 0.15 nM | 6.15 ± 2.09 nM |  | 354 nM | 10.9% |  | dns | dns |  |  |  |  |  |
| Cc1cc(O)cc(C)c1C[C@H](N)C(=O)N[C@@H]1CCNc2c(C(=O)Nc3ccccc3)cc(Cc3ccccc3)cc21 [Compound 1103] | 0.36 nM | 2.17 nM | 29.4 nM | 27.3 nM | 62.7% |  | dns | dns |  |  |  |  |  |
| COc1cc(Cl)c(C[C@H](N)C(=O)N[C@@H]2CCNc3ccc(Cc4ccccc4)cc32)c(Cl)c1 [Compound 1021] | 38.1 ± 5.83 nM | 2700 nM | 1210 nM | 1390 ± 480 nM | 34.8 ± 2.52% |  |  |  |  |  |  |  |  |
| COc1ccccc1Oc1ccc2c(c1)[C@H](NC(=O)[C@@H](N)Cc1c(C)cc(O)cc1C)CCN2 [Compound 1029] | 0.36 ± 0.04 nM | 9.97 ± 0.71 nM |  | 46.7 ± 4.12 nM | 35.7 ± 2.58% | 0% |  |  |  |  |  |  |  |
| CCCc1cc(Cc2ccccc2)cc2c1N(C(C)=O)CC[C@H]2NC(=O)[C@@H](N)Cc1c(C)cc(O)cc1C [Compound 1107] | 0.35 nM | 1.95 nM | 32.7 nM |  |  |  |  |  |  |  |  |  |  |
| Cc1cc(O)cc(C)c1C[C@H](N)C(=O)N[C@@H]1CCNc2ccc(CN3CCNCC3)cc21 [Compound 1059] | 16.6 ± 8.63 nM | 1560 ± 288 nM | 11.7 ± 1.56 nM | 90.5 ± 73.2 nM |  |  |  |  | dns |  |  |  |  |
| Cc1cc(O)cc(C)c1C[C@H](N)C(=O)N[C@@H]1CCNc2ccc(Oc3cccc(Cl)c3)cc21 [Compound 1030] | 0.08 ± 0.01 nM | 2.59 nM |  | 10.1 ± 3.25 nM | 27.2 ± 2.11% |  |  |  |  |  |  |  |  |
| Cc1cc(O)cc(C)c1C[C@H](N)C(=O)N[C@@H]1CC[C@H](C)c2ccc(Cc3ccccc3)cc21 [Compound 1120] | 0.08 ± 0.02 nM | 5.85 ± 0.58 nM |  | 16 ± 1.94 nM | 72.3 ± 3.67% |  | dns | dns |  |  |  |  |  |
| Cc1cc(O)cc(C)c1C[C@H](N)C(=O)N[C@@H]1CCC(C)(C)c2ccc(Cc3ccccc3)cc21 [Compound 1122] | 0.36 ± 0.08 nM | 6.5 ± 0.66 nM |  | 16 ± 4.74 nM | 75.4 ± 4.06% | 16 ± 2.78% |  |  |  | 1090 ± 654 nM | 2100 nM | 77.8% |  |
| CCC(=O)N1CC[C@@H](NC(=O)[C@@H](N)Cc2c(C)cc(O)cc2C)c2cc(CC3Cc4ccccc4C3)ccc21 [Compound 1033] | 0.06 ± 0.01 nM | 0.3 ± 0.11 nM |  | 3.61 ± 2.02 nM | 52 ± 7.7% |  | dns | dns |  |  |  |  |  |
| Cc1cc(O)cc(C)c1C[C@H](N)C(=O)N[C@@H]1CCNc2ccc(CN3CCC4(CCCCC4)C3)cc21 [Compound 1105] | 1.14 nM | 14.1 nM | 1.66 nM |  |  |  |  |  |  |  |  |  |  |
| Cc1cc(O)cc(C)c1C[C@H](N)C(=O)N[C@@H]1CCNc2ccc(CN3CCCC4(CCCCC4)CC3)cc21 [Compound 1106] | 0.54 nM | 17 nM | 3.08 nM |  |  |  |  |  |  |  |  |  |  |
| Cc1cc(O)cc(C)c1C[C@H](N)C(=O)N[C@@H]1CC[C@@H](C)c2ccc(Cc3ccccc3)cc21 [Compound 1121] | 0.32 ± 0.1 nM | 15.8 ± 4.72 nM |  |  |  | 14.3 ± 4.34% |  |  | dns | 109 ± 80.7 nM |  |  | dns |
| CC(=O)N1CC[C@@H](NC(=O)[C@@H](N)Cc2c(C)cc(O)cc2C)c2cccc(Cc3ccccc3)c21 [Compound 1040] | 92.4 nM | 6.19 nM |  | 19 nM | 8.03% |  |  |  |  |  |  |  |  |
| N[C@@H](Cc1ccc(Cl)cc1Cl)C(=O)N[C@@H]1CCNc2ccc(Cc3ccccc3)cc21 [Compound 1028] | 50.6 ± 10.6 nM | 2090 nM |  |  | 13.8 ± 1.27% | 0% |  |  |  |  |  |  |  |
| COc1cccc2c1CC(Cc1ccc3c(c1)[C@H](NC(=O)[C@@H](N)Cc1c(C)cc(O)cc1C)CCN3)C2 (stereo partly drawn) [Compound 1035, (2S)-2-amino-3-(4-hydroxy-2,6-dimethylphenyl)-N-((4R)-6-((4-methoxy-2,3-dihydro-1H-inden-2-yl)methyl)-1,2,3,4-tetrahydroquinolin-4-yl)propanamide] | 0.09 nM | 4.13 ± 2.27 nM |  | 1.44 nM | 32.9% |  | dns | dns |  |  |  |  |  |
| CC(=O)N1CC[C@@H](NC(=O)[C@@H](N)Cc2c(C)cc(O)cc2C)c2cc(Cc3ccccc3)cc(Br)c21 [Compound 1108] | 0.49 nM | 1.35 nM | 33.3 nM |  |  |  |  |  |  |  |  |  |  |
| N[C@@H](Cc1c(Cl)cc(O)cc1Cl)C(=O)N[C@@H]1CCCc2ccc(Oc3ccccc3)cc21 [Compound 1119] | 1.53 ± 0.64 nM | 105 ± 10.5 nM |  | 118 ± 76 nM | 20.7 ± 2.91% |  | dns | dns |  |  |  |  |  |
| COc1ccccc1Oc1ccc2c(c1)[C@H](NC(=O)[C@@H](N)Cc1c(C)cc(O)cc1C)CCN2C(C)=O [Compound 1031] | 0.27 ± 0.05 nM | 2.7 nM |  | 39.7 ± 17 nM | 30.5 ± 1.74% |  |  |  |  |  |  |  |  |

Reference: patent US10519114B2, “Peptidomimetics and methods of using the same” (The Regents of the University of Michigan, priority 2016, dated 2019)
